PubChem BioAssay AID1259408 (Genetic Toxicology Data Bank (GENE-TOX), 2018)
Active and inactive are the calls of the source. The rule behind the calls is not given here.

Tested on: GENE-TOX genotoxicity assays, various organisms and cells
Test: GENE-TOX mutagenicity studies
Conditions: for call: Assay Type: In vivo carcinogenicity studies
[1] = Species/Cell Type: Fischer rat embryo (RLV/1706) cells, Assay Type: Cell transformation, viral enhanced, Assay Code: CTR-, Evaluation Type: Evaluation A (Pre-1980)
[2] = Species/Cell Type: Human lymphocytes, Assay Type: Sister-chromatid exchange (SCE) in vitro, Assay Code: SCL+D, Dose Response: With dose response, Evaluation Type: Evaluation B (Post-1980)
[3] = Species/Cell Type: Human, Assay Type: Sister-chromatid exchange (SCE) in vitro, Assay Code: SC1+D, Dose Response: With dose response, Evaluation Type: Evaluation B (Post-1980)
[4] = Species/Cell Type: Mouse, Sex: Male, Assay Type: Sperm morphology, Assay Code: SPI-, Evaluation Type: Evaluation A (Pre-1980)
[5] = Species/Cell Type: Neurospora crassa, Assay Type: Aneuploidy, chromosome aberrations, Assay Code: NEN-, Evaluation Type: Evaluation A (Pre-1980)
[6] = Species/Cell Type: Nonhuman, Assay Type: Sister-chromatid exchange (SCE) in vivo, Assay Code: SC3+, Evaluation Type: Evaluation B (Post-1980)
[7] = Species/Cell Type: Nonhuman, Assay Type: Sister-chromatid exchange (SCE) in vitro, Assay Code: SC2+, Evaluation Type: Evaluation B (Post-1980)
[8] = Species/Cell Type: Human lymphocytes, Assay Type: Sister-chromatid exchange (SCE) in vitro, Assay Code: SCL+, Evaluation Type: Evaluation B (Post-1980)
[9] = Species/Cell Type: Human, Assay Type: Sister-chromatid exchange (SCE) in vitro, Assay Code: SC1+, Evaluation Type: Evaluation B (Post-1980)
[10] = Species/Cell Type: Syrian hamster embryo (SHE) cells, Assay Type: Cell transformation, clonal assay, Assay Code: CTC+, Evaluation Type: Evaluation A (Pre-1980)
[11] = Species/Cell Type: Salmonella typhimurium (one or more of the five standard strains: TA98, TA100, TA1535, TA1537, and TA1538), Assay Type: Histidine reverse gene mutation, Ames assay, Assay Code: SAL+, Evaluation Type: Evaluation A (Pre-1980)
[12] = Species/Cell Type: Salmonella typhimurium (one or more of the five standard strains: TA98, TA100, TA1535, TA1537, and TA1538), Assay Type: Histidine reverse gene mutation, Ames assay, Assay Code: SAL+*, Activation: With metabolic activation, Evaluation Type: Evaluation A (Pre-1980)
[13] = Species/Cell Type: Rodents, Sex: Male, Assay Type: Dominant lethal test, Assay Code: DLT-, Evaluation Type: Evaluation A (Pre-1980)
[14] = Species/Cell Type: Saccharomyces cerevisiae, Assay Type: Mitotic recombination or gene conversion, Assay Code: YEC+, Evaluation Type: Evaluation A (Pre-1980)
[15] = Species/Cell Type: Nonhuman, Assay Code: CCG+L, Evaluation Type: Evaluation A (Pre-1980)

With `CCO` the mutagenic call (Species/Cell Type: Arabidopsis species, Assay Type: Gene mutation, Assay Code: ARM-, Evaluation Type: Evaluation A (Pre-1980)) was “inactive; negative”, the mutagenic call (Species/Cell Type: Aspergillus nidulans, Assay Type: Forward gene mutation, Assay Code: ASF-, Evaluation Type: Evaluation A (Pre-1980)) was “inactive; negative” and the mutagenic call [1] was “inactive; negative”. The mutagenic call [2] was “active; positive”, the mutagenic call (Species/Cell Type: Human lymphocytes, Assay Type: Sister-chromatid exchange (SCE) in vitro, Assay Code: SCL-, Evaluation Type: Evaluation A (Pre-1980)) was “inactive; negative” and the mutagenic call [3] was “active; positive”. The mutagenic call (Species/Cell Type: Human, Assay Type: Sister-chromatid exchange (SCE) in vitro, Assay Code: SC1-, Evaluation Type: Evaluation A (Pre-1980)) was “inactive; negative”, the mutagenic call (Species/Cell Type: Mammalian polychromatic erythrocytes, Assay Type: Micronucleus test, chromosome aberrations, Assay Code: MNT-, Evaluation Type: Evaluation A (Pre-1980)) was “inactive; negative” and the mutagenic call [4] was “inactive; negative”. The mutagenic call [5] was “inactive; negative”, the mutagenic call (Species/Cell Type: Nonhuman, Assay Type: Chromosome aberrations in vitro, Assay Code: CY&-, Evaluation Type: Evaluation A (Pre-1980)) was “inactive; negative” and the call (Species/Cell Type: Nonhuman, Assay Code: CCG-L, Evaluation Type: Evaluation A (Pre-1980)) was “inactive; negative”. The mutagenic call (Species/Cell Type: Nonhuman, Assay Type: Sister-chromatid exchange (SCE) in vitro, Assay Code: SC2+D, Dose Response: With dose response, Evaluation Type: Evaluation B (Post-1980)) was “active; positive”, the mutagenic call (Species/Cell Type: Nonhuman, Assay Type: Sister-chromatid exchange (SCE) in vitro, Assay Code: SC2-, Evaluation Type: Evaluation A (Pre-1980)) was “inactive; negative” and the mutagenic call [6] was “active; positive”. The mutagenic call (Species/Cell Type: Rodents, Sex: Male, Assay Type: Dominant lethal test, Assay Code: DLT+, Evaluation Type: Evaluation A (Pre-1980)) was “active; positive”, the mutagenic call (Species/Cell Type: Salmonella typhimurium (one or more of the five standard strains: TA98, TA100, TA1535, TA1537, and TA1538), Assay Type: Histidine reverse gene mutation, Ames assay, Assay Code: SAL-, Evaluation Type: Evaluation A (Pre-1980)) was “inactive; negative” and the mutagenic call (Species/Cell Type: Syrian hamster embryo (SHE) cells, Assay Type: Cell transformation, clonal assay, Assay Code: CTC-, Evaluation Type: Evaluation A (Pre-1980)) was “inactive; negative”. For the same molecule, the mutagenic call (Species/Cell Type: Tradescantia species, Assay Type: Gene mutation, Assay Code: TRM+D, Dose Response: With dose response, Evaluation Type: Evaluation A (Pre-1980)) was “active; positive” and the mutagenic call (Species/Cell Type: Vicia faba, Assay Type: Chromosome aberrations, Assay Code: VIC+, Evaluation Type: Evaluation A (Pre-1980)) was “active; positive”.
In the case of `CC(=O)ON(C(C)=O)c1ccc(-c2ccccc2)cc1`, the mutagenic call (Species/Cell Type: Human diploid fibroblasts, Assay Type: Unscheduled DNA synthesis (UDS) in vitro, DNA effects, Assay Code: UDH+, Evaluation Type: Evaluation A (Pre-1980)) was “active; positive” and the mutagenic call [7] was “active; positive”.
In the case of `C[C@]12CCC3=C4CCC(=O)C=C4CC[C@H]3[C@@H]1CC[C@@]2(O)CC#N`, the mutagenic call (Species/Cell Type: Rabbit, Sex: Male, Assay Type: Sperm morphology, Assay Code: SPR+, Evaluation Type: Evaluation A (Pre-1980)) was “active; positive”.
For `CC[C@]1(O)CC[C@H]2[C@@H]3CCC4=CC(=O)CC[C@@H]4[C@H]3CC[C@@]21C`, the mutagenic call (Species/Cell Type: Human, Sex: Male, Assay Type: Sperm morphology, Assay Code: SPH+, Evaluation Type: Evaluation A (Pre-1980)) was “active; positive”.
For `O=[As](O)(O)O`, the mutagenic call (Species/Cell Type: Bacillus subtilis (H17 vs M45), Assay Type: Rec-assay, spot test, DNA effects (bacterial DNA repair), Assay Code: REW+, Evaluation Type: Evaluation A (Pre-1980)) was “active; positive”, the mutagenic call [8] was “active; positive” and the mutagenic call [9] was “active; positive”. The mutagenic call [7] was “active; positive” and the mutagenic call [10] was “active; positive”.
For `CCN(N=O)c1ccccc1`, the mutagenic call [1] was “inactive; negative”, the mutagenic call (Species/Cell Type: Mouse (BALB/c-3T3) cells, Assay Type: Cell transformation, Assay Code: CTB-, Evaluation Type: Evaluation A (Pre-1980)) was “inactive; negative” and the mutagenic call [10] was “active; positive”.
`Cc1cc(O)c2c(c1O)C(=O)c1c(O)ccc(O)c1C2=O` was tested, and the mutagenic call [11] was “active; positive”.
With `NC(=O)N1C2=CC=CCC2=C(CO)c2ccccc21` the mutagenic call (Species/Cell Type: Human lymphocytes, Assay Type: Sister-chromatid exchange (SCE) in vitro, Assay Code: SCLT, Evaluation Type: Evaluation B (Post-1980)) was “no conclusion” and the mutagenic call (Species/Cell Type: Human, Assay Type: Sister-chromatid exchange (SCE) in vitro, Assay Code: SC1T, Evaluation Type: Evaluation B (Post-1980)) was “no conclusion”.
With `C1CNCCN1` the mutagenic call (Species/Cell Type: Salmonella typhimurium, Assay Type: Forward and reverse gene mutation, host-mediated assay, Assay Code: HMA+, Evaluation Type: Evaluation A (Pre-1980)) was “active; positive”.
For `CCCCN(CC(O)CC)N=O` (stereo not drawn), the mutagenic call [12] was “active; positive”.
`CN1CCN(CC(=O)N/N=C/c2ccc([N+](=O)[O-])o2)CC1` was tested, and the mutagenic call (Species/Cell Type: Escherichia coli WP2, Assay Type: Tryptophan reverse gene mutation, Assay Code: WP2-, Evaluation Type: Evaluation A (Pre-1980)) was “inactive; negative”, the mutagenic call (Species/Cell Type: Mammalian polychromatic erythrocytes, Assay Type: Micronucleus test, chromosome aberrations, Assay Code: MNT+, Evaluation Type: Evaluation A (Pre-1980)) was “active; positive” and the mutagenic call [13] was “inactive; negative”. For the same molecule, the mutagenic call [14] was “active; positive”.
With `CN(N=O)C(=O)NC(N)=O` the mutagenic call (Species/Cell Type: Arabidopsis species, Assay Type: Gene mutation, Assay Code: ARM+D, Dose Response: With dose response, Evaluation Type: Evaluation A (Pre-1980)) was “active; positive”.
`Cc1ccc(N)cc1N` was tested, and the mutagenic call (Species/Cell Type: Drosophila melanogaster, Assay Type: Sex-linked recessive lethal gene mutation, Assay Code: SRL+, Evaluation Type: Evaluation A (Pre-1980)) was “active; positive”, the mutagenic call [4] was “inactive; negative” and the mutagenic call [5] was “inactive; negative”. For the same molecule, the call (Species/Cell Type: Nonhuman, Assay Code: CCG+, Evaluation Type: Evaluation A (Pre-1980)) was “active; positive”, the mutagenic call [6] was “active; positive” and the mutagenic call [12] was “active; positive”. For the same molecule, the mutagenic call (Species/Cell Type: Syrian hamster embryo (SHE) cells, Assay Type: Cell transformation, clonal assay, Assay Code: CTCT, Evaluation Type: Evaluation A (Pre-1980)) was “no conclusion”.
For `ONc1cccc2ccccc12`, the mutagenic call (Species/Cell Type: Escherichia coli polA (W3119 vs P3478), Assay Type: Rec-assay, DNA effects (bacterial DNA repair), Assay Code: RE1+, Evaluation Type: Evaluation A (Pre-1980)) was “active; positive”, the mutagenic call (Species/Cell Type: Neurospora crassa, Assay Type: Forward gene mutation, Assay Code: NEF+, Evaluation Type: Evaluation A (Pre-1980)) was “active; positive” and the call [15] was “active; positive”. The mutagenic call (Species/Cell Type: Saccharomyces cerevisiae, Assay Type: Mitotic recombination or gene conversion, Assay Code: YEH+, Evaluation Type: Evaluation A (Pre-1980)) was “active; positive”, the mutagenic call [11] was “active; positive” and the mutagenic call (Species/Cell Type: Salmonella typhimurium, Assay Type: Forward and reverse gene mutation, host-mediated assay, Assay Code: HMA-, Evaluation Type: Evaluation A (Pre-1980)) was “inactive; negative”.
With `O=C(O)c1ccccc1NCCc1ccccc1` the mutagenic call (Species/Cell Type: Mammalian polychromatic erythrocytes, Assay Type: Micronucleus test, chromosome aberrations, Assay Code: MNTT, Evaluation Type: Evaluation B (Post-1980)) was “no conclusion”.
For `[I][Hg][I]`, the mutagenic call (Species/Cell Type: Nonhuman, Assay Type: Sister-chromatid exchange (SCE) in vitro, Assay Code: SC2-, Evaluation Type: Evaluation B (Post-1980)) was “inactive; negative”.
For `CCOP(=S)(OCC)SCSC(C)(C)C`, the mutagenic call (Species/Cell Type: Hordeum vulgare (barley), Assay Type: Chromosome aberrations, Assay Code: HOC+D, Dose Response: With dose response, Evaluation Type: Evaluation A (Pre-1980)) was “active; positive”.
With `CC1(C)O[C@@H]1COc1c2occc2cc2ccc(=O)oc12` the mutagenic call [2] was “active; positive” and the mutagenic call [3] was “active; positive”.
In the case of `CC(C)(OO)c1ccccc1`, the mutagenic call (Species/Cell Type: Saccharomyces cerevisiae, Assay Type: Mitotic recombination or gene conversion, Assay Code: YEC-, Evaluation Type: Evaluation A (Pre-1980)) was “inactive; negative”.
`Cc1ccc2c(C)c(C)[nH]c2c1` was tested, and the mutagenic call [8] was “active; positive” and the mutagenic call [9] was “active; positive”.
With `C1=Cc2cc3cccc4ccc5ccc1c2c5c43` the call [15] was “active; positive” and the mutagenic call [12] was “active; positive”.
With `c1cc[n+]2c(c1)-c1cccc[n+]1CC2` the mutagenic call (Species/Cell Type: Drosophila melanogaster, Assay Type: Sex-linked recessive lethal gene mutation, Assay Code: SRLT, Evaluation Type: Evaluation A (Pre-1980)) was “no conclusion”, the mutagenic call [13] was “inactive; negative” and the mutagenic call [14] was “active; positive”.
